Active and inactive are the calls of the source.

For assay [1], the target named is Serine/threonine-protein phosphatase PP1-alpha catalytic subunit (Homo sapiens, UniProt P62136). Description: PP1 phosphatase inhibitors, dose response, biochemical, fluorescence (AID 2394).
Assay [2] addresses Serine/threonine-protein phosphatase (Homo sapiens, UniProt Q9BPW0). Put plainly: PP5 phosphatase inhibitors, dose response, biochemical, fluorescence (AID 2395).
In assay [3] the target is Glucose-6-phosphate 1-dehydrogenase (Homo sapiens, UniProt P11413). Put plainly: human G6PD enzyme inhibitors, dose response, selectivity assay for P. falciparum G6PD inhibitor project, biochemical, fluorescence (AID 504792). The assay is classed as functional.
Assay [4] addresses T1, Apoptotic protease-activating factor 1 (Homo sapiens, UniProt O14727).
T1 sequence (O14727 whole entry): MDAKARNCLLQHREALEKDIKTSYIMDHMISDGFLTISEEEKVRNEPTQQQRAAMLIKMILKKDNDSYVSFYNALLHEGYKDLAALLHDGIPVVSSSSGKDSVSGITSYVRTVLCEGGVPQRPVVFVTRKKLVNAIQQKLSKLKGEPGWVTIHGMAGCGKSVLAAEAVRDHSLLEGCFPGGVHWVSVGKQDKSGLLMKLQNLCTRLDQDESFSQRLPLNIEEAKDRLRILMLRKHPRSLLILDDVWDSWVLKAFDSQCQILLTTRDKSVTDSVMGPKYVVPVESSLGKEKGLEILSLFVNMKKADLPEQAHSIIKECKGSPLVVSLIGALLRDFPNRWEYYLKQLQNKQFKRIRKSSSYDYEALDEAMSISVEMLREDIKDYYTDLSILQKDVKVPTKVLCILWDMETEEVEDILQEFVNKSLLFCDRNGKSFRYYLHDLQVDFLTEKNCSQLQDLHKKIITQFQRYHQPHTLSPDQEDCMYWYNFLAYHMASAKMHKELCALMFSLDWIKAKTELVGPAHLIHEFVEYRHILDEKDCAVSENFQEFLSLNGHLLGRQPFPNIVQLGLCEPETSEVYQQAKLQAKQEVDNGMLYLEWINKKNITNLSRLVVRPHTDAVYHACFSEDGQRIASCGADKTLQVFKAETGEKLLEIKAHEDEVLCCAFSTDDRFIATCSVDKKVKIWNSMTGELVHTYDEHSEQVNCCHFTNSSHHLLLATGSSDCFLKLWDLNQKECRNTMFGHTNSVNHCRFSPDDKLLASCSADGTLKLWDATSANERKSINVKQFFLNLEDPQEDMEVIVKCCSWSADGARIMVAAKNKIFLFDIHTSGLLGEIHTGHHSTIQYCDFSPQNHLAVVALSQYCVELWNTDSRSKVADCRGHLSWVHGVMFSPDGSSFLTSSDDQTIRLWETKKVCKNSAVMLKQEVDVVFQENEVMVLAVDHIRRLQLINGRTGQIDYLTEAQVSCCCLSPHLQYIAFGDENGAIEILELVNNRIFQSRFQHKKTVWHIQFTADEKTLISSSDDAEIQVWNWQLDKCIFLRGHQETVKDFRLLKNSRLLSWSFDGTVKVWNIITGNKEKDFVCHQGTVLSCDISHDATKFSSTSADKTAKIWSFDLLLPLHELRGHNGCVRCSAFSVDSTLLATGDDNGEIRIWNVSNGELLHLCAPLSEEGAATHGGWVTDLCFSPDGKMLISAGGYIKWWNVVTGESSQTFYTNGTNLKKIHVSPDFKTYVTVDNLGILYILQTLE
The assay is classed as functional.

Assay [5] has as its target Genome polyprotein (dengue virus type 2, UniProt P29990). Description: Dengue-2 NS5 methyltransferase inhibitors, primary screen, biochemical, confirmation dose response (AID 588689). It counts as functional.
Assay [6] deals with 5-hydroxytryptamine receptor 1A (Homo sapiens, UniProt P08908). It counts as functional.
A short description of assay [7]: NIH-3T3 fibroblast cytotoxicity, dose response, cytotoxicity control, cell-based, fluorescence, Alamar Blue, secondary assay (AID 2327).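 Note: NIH-3T3 mouse fibroblasts cultured with fluconazole at 8 µg/mL.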 It counts as functional. (In general: The colour change of resazurin is a common sign of viable cells or microbes.)
Assay [8] can be described thus: HEp-2 cell cytotoxicity, dose response, cytotoxicity control for RSV inhibitor project, HTS (AID 2410). It counts as functional. The settings on record: human respiratory syncytial virus.
In assay [9] the target is T2, Heat shock factor protein 1 (Mus musculus, UniProt P38532).
T2 sequence (P38532 whole entry): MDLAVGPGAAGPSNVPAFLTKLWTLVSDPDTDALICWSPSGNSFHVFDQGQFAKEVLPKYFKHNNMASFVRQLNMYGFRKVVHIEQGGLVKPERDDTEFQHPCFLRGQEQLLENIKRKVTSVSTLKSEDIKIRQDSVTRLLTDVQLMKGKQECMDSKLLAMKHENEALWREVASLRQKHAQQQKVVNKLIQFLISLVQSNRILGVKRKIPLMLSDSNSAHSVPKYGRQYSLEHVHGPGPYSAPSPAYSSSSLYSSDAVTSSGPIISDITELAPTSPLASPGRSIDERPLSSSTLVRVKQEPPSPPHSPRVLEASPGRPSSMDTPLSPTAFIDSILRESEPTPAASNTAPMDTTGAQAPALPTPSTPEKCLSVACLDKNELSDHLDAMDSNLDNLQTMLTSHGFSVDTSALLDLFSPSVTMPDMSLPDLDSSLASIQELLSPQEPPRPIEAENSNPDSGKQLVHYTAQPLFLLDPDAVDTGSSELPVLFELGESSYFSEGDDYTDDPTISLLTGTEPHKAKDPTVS
Description: inhibition of MG132-induced HSE-luciferase signal, confirmation, cell-based, NIH3T3, luminescence, dose retest (AID 2382).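 Note: NIH3T3 fibroblasts with HSF1-driven luciferase reporter stressed by proteasome inhibitor MG132; luminescence from HSF1-driven luciferase expression after 8 hours of MG132 stress.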 It counts as functional.

Assay [10] in a line: C. albicans growth with fluconazole, confirmation, fluorescence, retest (AID 2467). The assay is classed as functional, cell-based.
In assay [11] the target is Ephrin type-A receptor 4 (Mus musculus, UniProt Q03137). Put plainly: inhibitors of EphA4 binding to KYL peptide, primary screen, biochemical, colorimetric, mouse EphA4 (AID 689). It counts as functional.
In assay [12] the test system is Vero. Put plainly: host cell cytotoxicity of antiviral hits, dose response, cytotoxicity control for West Nile virus antiviral project, secondary assay (AID 1650). The assay is classed as functional. To be noted: Chlorocebus sabaeus.
The nature of assay [13]: Vero cell cytotoxicity, dose response, cytotoxicity control for Vif-APOBEC3G degradation inhibitor project, Vero cells (AID 1117358). It counts as functional. To be noted: Human immunodeficiency virus 1, Vero.
In assay [14] the target is Voltage-gated inwardly rectifying potassium channel KCNH2 (Homo sapiens, UniProt Q12809). Description: hERG protection from proarrhythmic block, potency, dose response, cell-based, thallium flux (AID 2121). The assay is classed as ADME. In general terms: Block of hERG is tested as a sign of cardiac risk.
In assay [15] the target is T3, Replicative DNA helicase DnaB (Mycobacterium tuberculosis, UniProt P9WMR3).
T3 sequence (P9WMR3 whole entry): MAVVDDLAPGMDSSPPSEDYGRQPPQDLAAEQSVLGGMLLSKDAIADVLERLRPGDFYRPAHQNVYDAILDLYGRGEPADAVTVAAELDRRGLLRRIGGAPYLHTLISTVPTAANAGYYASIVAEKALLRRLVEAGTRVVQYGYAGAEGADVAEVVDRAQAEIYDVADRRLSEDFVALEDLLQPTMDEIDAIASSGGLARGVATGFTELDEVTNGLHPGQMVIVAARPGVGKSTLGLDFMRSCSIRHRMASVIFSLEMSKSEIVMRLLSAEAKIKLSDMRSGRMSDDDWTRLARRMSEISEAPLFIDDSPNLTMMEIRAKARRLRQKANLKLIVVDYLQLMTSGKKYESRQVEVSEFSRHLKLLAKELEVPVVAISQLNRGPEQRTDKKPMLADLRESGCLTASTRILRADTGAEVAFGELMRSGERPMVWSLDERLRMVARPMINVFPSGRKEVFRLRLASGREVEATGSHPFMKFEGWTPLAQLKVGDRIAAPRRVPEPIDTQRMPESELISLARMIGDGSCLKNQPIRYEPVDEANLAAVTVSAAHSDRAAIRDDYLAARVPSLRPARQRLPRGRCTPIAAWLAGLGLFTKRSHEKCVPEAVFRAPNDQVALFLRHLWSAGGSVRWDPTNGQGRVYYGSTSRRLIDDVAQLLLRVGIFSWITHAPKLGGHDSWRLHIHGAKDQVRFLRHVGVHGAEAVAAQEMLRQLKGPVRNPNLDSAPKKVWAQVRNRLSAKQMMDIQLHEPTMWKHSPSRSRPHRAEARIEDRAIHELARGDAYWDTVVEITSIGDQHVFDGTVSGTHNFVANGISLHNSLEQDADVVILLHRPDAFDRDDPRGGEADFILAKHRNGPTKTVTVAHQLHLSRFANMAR
Put plainly: DnaB intein splicing inhibitors, dose response, biochemical, cell-free fluorescence (AID 449749). It counts as functional.

Assay [16] addresses T4, Protein RecA (Mycobacterium tuberculosis, UniProt P9WHJ3).
T4 sequence (P9WHJ3 whole entry): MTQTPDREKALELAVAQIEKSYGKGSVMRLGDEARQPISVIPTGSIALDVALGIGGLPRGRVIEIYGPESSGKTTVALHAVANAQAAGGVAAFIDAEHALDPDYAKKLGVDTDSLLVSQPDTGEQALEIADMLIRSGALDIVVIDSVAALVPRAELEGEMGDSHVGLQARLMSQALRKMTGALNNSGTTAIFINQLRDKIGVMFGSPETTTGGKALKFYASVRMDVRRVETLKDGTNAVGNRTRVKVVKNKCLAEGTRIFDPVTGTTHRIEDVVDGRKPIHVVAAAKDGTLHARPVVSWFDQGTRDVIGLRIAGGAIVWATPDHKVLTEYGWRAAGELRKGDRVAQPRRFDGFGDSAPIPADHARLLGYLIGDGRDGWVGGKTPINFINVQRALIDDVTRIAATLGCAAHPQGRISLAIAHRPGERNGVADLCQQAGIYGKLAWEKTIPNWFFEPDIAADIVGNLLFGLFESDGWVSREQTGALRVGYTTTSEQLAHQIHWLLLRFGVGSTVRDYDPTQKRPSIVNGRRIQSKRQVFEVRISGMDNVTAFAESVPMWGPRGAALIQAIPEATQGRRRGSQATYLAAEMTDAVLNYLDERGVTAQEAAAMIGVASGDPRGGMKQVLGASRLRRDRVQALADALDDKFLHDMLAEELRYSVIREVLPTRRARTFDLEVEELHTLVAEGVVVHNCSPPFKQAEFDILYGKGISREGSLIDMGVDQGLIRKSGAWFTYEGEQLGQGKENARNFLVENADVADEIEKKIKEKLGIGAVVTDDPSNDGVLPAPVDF
Description: Fluorescence Cell-Free Homogeneous Dose Retest to Identify Inhibitors of RecA-Intein Splicing Activity. [Related pubchem assays (depositor defined):AID2097, AID2223, AID489010, AID492950]. It counts as functional.

The target in assay [17] is Cytochrome P450 2D6 (Homo sapiens, UniProt P10635).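 Note: CYP2D6 member of a cytochrome P450 panel assay.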
Chain of Cytochrome P450 2D6 (P10635 whole entry): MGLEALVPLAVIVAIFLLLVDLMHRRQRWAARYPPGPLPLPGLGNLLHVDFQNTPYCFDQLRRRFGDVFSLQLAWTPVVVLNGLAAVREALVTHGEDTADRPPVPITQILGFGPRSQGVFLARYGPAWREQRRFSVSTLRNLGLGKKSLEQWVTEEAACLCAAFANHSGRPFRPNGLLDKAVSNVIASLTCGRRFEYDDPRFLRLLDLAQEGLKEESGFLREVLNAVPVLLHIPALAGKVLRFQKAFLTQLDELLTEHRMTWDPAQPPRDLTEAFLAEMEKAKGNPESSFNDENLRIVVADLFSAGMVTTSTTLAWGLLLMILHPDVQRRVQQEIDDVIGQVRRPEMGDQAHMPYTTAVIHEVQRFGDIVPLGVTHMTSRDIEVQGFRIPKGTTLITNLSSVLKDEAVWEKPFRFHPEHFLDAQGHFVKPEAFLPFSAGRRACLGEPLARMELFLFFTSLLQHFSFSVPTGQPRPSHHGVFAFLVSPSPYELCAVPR

Chain of 5-hydroxytryptamine receptor 1A (P08908 whole entry): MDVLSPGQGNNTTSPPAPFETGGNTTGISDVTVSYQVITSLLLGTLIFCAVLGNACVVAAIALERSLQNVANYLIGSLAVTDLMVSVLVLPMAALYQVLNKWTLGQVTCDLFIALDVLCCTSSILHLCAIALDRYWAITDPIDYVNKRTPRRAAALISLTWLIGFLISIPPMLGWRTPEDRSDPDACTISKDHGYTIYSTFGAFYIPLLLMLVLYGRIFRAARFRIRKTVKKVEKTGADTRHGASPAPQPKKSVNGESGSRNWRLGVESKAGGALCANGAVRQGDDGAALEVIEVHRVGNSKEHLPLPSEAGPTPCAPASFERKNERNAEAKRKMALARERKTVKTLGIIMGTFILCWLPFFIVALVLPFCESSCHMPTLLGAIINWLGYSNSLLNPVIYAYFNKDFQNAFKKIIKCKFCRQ
Chain of Voltage-gated inwardly rectifying potassium channel KCNH2 (Q12809 whole entry): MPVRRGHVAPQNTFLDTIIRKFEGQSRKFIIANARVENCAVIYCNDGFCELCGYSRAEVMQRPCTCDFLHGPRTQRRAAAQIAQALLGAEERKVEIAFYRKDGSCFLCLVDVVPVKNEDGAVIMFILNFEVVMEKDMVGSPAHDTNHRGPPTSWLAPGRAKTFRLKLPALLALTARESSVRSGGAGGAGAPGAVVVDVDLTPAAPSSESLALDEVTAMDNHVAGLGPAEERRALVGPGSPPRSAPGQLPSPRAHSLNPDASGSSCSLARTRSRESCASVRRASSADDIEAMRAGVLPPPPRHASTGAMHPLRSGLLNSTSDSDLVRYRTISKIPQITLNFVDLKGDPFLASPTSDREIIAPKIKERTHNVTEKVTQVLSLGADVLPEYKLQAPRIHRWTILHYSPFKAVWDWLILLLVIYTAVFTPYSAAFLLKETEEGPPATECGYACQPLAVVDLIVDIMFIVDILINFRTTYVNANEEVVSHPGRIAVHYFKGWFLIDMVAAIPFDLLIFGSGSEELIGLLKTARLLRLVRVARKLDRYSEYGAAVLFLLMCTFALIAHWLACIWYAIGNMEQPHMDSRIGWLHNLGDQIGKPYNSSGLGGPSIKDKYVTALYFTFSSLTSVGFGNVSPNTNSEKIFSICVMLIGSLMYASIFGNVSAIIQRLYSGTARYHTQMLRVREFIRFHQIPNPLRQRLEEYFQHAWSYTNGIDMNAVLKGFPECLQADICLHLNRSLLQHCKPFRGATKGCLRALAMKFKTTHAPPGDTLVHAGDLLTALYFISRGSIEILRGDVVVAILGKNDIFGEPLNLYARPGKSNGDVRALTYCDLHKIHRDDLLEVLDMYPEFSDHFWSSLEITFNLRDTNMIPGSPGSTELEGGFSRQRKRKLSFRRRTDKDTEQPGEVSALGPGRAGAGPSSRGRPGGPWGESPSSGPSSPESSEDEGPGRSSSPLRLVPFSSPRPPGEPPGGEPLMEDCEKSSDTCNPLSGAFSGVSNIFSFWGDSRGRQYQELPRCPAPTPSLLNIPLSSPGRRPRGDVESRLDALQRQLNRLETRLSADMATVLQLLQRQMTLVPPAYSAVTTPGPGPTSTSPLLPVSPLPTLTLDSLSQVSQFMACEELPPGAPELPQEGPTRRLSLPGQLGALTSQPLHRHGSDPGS
Chain of Serine/threonine-protein phosphatase (Q9BPW0 whole entry): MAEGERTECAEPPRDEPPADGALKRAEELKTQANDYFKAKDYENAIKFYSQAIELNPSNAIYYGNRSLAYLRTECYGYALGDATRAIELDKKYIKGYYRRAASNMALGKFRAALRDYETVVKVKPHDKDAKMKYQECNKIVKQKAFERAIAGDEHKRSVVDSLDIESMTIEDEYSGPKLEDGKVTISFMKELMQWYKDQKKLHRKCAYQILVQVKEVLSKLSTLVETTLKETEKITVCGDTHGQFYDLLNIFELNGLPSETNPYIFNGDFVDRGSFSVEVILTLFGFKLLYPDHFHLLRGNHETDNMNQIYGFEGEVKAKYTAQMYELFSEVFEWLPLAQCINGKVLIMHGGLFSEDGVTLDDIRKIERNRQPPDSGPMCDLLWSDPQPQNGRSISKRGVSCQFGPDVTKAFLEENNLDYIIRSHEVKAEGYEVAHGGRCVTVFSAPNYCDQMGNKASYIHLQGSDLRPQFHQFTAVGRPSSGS
Chain of Ephrin type-A receptor 4 (Q03137 whole entry): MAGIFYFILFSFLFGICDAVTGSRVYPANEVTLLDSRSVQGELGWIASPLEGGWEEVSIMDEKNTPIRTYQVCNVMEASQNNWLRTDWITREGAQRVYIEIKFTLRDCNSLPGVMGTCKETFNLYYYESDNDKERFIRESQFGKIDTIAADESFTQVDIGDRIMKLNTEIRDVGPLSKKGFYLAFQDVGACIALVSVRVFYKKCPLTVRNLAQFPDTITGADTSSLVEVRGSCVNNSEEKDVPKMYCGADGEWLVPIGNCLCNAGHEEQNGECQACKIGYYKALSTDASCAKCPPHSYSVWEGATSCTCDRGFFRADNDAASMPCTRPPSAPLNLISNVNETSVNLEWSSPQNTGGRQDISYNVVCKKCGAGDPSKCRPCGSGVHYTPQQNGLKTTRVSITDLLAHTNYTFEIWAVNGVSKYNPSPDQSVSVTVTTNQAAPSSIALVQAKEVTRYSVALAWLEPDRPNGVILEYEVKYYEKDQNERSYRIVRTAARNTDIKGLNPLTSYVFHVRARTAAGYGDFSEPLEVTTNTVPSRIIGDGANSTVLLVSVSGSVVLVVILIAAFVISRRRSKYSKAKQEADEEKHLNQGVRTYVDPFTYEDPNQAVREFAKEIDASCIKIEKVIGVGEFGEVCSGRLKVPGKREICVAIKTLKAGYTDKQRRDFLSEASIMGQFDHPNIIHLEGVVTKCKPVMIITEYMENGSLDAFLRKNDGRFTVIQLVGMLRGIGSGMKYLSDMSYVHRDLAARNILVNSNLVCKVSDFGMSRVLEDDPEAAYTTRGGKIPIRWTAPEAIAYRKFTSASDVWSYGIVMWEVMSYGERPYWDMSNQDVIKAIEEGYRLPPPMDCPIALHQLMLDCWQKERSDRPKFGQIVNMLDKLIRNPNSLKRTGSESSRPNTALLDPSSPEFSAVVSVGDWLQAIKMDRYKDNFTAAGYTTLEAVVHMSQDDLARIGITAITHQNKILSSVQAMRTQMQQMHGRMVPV
Chain of Serine/threonine-protein phosphatase PP1-alpha catalytic subunit (P62136 whole entry): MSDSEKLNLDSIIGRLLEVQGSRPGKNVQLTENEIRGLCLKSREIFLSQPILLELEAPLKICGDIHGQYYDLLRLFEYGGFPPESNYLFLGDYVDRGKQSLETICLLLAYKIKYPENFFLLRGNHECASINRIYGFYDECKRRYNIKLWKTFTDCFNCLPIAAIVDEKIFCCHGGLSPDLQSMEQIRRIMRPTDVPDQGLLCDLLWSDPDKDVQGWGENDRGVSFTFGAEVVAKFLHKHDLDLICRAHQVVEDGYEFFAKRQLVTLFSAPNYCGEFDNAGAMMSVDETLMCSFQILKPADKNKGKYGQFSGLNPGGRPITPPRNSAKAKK
Chain of Genome polyprotein (P29990 2492-3391 limits assumed): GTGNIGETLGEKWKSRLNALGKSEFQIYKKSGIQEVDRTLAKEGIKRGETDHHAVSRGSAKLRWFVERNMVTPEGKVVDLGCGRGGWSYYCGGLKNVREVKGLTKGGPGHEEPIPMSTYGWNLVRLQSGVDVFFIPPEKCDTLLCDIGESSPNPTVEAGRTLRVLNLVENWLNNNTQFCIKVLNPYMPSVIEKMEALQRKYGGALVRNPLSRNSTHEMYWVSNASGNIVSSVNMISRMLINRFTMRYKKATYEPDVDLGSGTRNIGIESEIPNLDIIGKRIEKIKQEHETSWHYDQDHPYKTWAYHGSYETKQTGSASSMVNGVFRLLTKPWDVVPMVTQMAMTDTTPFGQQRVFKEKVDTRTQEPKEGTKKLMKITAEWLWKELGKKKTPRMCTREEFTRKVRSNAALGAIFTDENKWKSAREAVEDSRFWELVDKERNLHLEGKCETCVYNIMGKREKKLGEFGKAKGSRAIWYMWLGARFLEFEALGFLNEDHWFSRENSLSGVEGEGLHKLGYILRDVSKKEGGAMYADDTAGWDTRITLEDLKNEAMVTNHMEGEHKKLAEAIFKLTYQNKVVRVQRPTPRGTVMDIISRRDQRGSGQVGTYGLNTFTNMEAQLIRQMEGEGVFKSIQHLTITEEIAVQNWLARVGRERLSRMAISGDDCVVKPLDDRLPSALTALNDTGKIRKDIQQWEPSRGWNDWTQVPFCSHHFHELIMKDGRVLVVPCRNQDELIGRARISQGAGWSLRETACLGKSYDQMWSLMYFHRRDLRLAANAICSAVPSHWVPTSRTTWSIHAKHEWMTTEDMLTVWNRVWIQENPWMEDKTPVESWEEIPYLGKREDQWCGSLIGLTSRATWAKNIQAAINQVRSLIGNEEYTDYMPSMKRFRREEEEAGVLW

The IC50 is the concentration at which inhibition is half-maximal. With `COC(=O)CCC(=O)OC1(C)C(=O)C2=CN(C3CC3)C(c3ccc(OC)cc3)=CC2=C(Br)C1=O` (configuration not stated), the IC50 in assay [1] is 46.2 µM (not active); in assay [2] it was 8.96 µM (active); in [3] it was 31.1 µM (inactive); in assay [4], 22 µM (active); in [5], > 100 µM (active).
The EC50 is the concentration that produces a half-maximal response. `CCN(CC)c1nc(N2CCOCC2)c(C#N)c2c1CN(C)CC2`: the EC50 in assay [6] is > 50 µM (not active).
As a reminder, the CC50 is the concentration at which the toxic effect on the cells reaches its halfway point. `COc1ccc(NC2=Nc3ccccc3N3C2=Nc2c(c(C)nn2-c2ccc(C)cc2)C3c2cccnc2)cc1` (configuration not stated): the EC50 in assay [7] was 53.8 µM (active); in assay [9] it was > 195 µM (not active); in assay [10], > 38 µM (not active). The CC50 in assay [8] is > 50 µM (active). Besides, the IC50 in [11] is 10.4 µM (active).
`Cc1cc(C)n(Cc2ccc(NC(=O)c3nn(C)cc3[N+](=O)[O-])cc2)n1`: the cytotoxic concentration (CC50) in assay [12] was 9.3 µM (active); in assay [13], 20.8 µM (active).
A word on the AC50: it is the concentration at which the activity in the assay is half-maximal. For the compound `CN1C(=O)/C(=N\OC(=O)c2cccc3ccccc23)c2ccccc21`, the EC50 in assay [14] is 1.17 µM (active); in assay [16], 15 µM (active). Moreover, the AC50 in assay [15] is 7.38 µM (active); in assay [17], 12.6 µM (inconclusive).

These data come from ChEMBL document CHEMBL1201862, “PubChem BioAssay data set” (2004).
